From patent US12655116B2, “Substituted isophthalic acid diamides” (Bayer Aktiengesellschaft, priority 2020, dated 2026)

Columns and labels:
ABUTH [1] = assay: Pre-emergence herbicidal action against ABUTH; format: in vivo, Abutilon theophrasti; conditions: Abutilon theophrasti, 504 h
How it was run: (§1)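 Seeds sown in sandy loam, soil-covered; compound sprayed on soil surface pre-emergence. Application: WP/EC, 600–800 l/ha, 0.2% wetting agent. Readout: visual % damage at 3 weeks.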

ALOMY [2] = assay: Pre-emergence herbicidal action against ALOMY; format: in vivo, Alopecurus myosuroides; conditions: Alopecurus myosuroides, 504 h; 80 g/ha, pre-emergence, scored visually after 3 weeks vs untreated controls (100% = plants have died, 0% = like control plants)
How it was run: as §1

AMARE [3] = assay: Pre-emergence herbicidal action against AMARE; format: in vivo, Amaranthus retroflexus; conditions: Amaranthus retroflexus, 504 h, scored visually after 3 weeks vs untreated controls, 100% = plants have died, 0% = like control plants
How it was run: as §1

AVEFA [4] = assay: Pre-emergence herbicidal action against AVEFA; format: in vivo, Avena fatua; conditions: Avena fatua, 504 h; 80 g/ha, pre-emergence
How it was run: as §1

ECHCG [5] = assay: Pre-emergence herbicidal action against ECHCG; format: in vivo, Echinochloa crus-galli; conditions: Echinochloa crus-galli, 504 h, 80 g/ha
How it was run: as §1

LOLRI [6] = assay: Pre-emergence herbicidal action against LOLRI; format: in vivo, Lolium rigidum; conditions: Lolium rigidum, 504 h, 80 g/ha
How it was run: as §1

MATIN [7] = assay: Pre-emergence herbicidal action against MATIN; format: in vivo, Matricaria inodora; conditions: Tripleurospermum inodorum, 504 h
How it was run: as §1

PHBPU [8] = assay: Pre-emergence herbicidal action against PHBPU; format: in vivo, Pharbitis purpurea; conditions: Ipomoea purpurea, 504 h, dosage 80 g/ha
How it was run: as §1

POLCO = assay: Pre-emergence herbicidal action against POLCO; format: in vivo, Polygonum convolvulus; conditions: Fallopia convolvulus, 504 h, dosage 80 g/ha
How it was run: as §1

SETVI [9] = assay: Pre-emergence herbicidal action against SETVI; format: in vivo, Setaria viridis; conditions: Setaria viridis, 504 h
How it was run: as §1

STEME [10] = assay: Pre-emergence herbicidal action against STEME; format: in vivo, Stellaria media; conditions: Stellaria media, 504 h
How it was run: as §1

VERPE [11] = assay: Pre-emergence herbicidal action against VERPE; format: in vivo, Veronica persica; conditions: Veronica persica, 504 h, dosage 80 g/ha
How it was run: as §1

VIOTR [12] = assay: Pre-emergence herbicidal action against VIOTR; format: in vivo, Viola tricolor; conditions: Viola tricolor, 504 h
How it was run: as §1

DIGSA [13] = assay: Pre-emergence herbicidal action against DIGSA; format: in vivo, Digitaria sanguinalis; conditions: Digitaria sanguinalis, 504 h
How it was run: as §1

ABUTH [14] = assay: Post-emergence herbicidal action against ABUTH; format: in vivo, Abutilon theophrasti; conditions: Abutilon theophrasti, 504 h, visual assessment about 3 weeks after treatment vs untreated controls
How it was run: (§2)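 Sandy loam, greenhouse; treatment 2–3 weeks after sowing, one-leaf stage. Aqueous suspension or emulsion from WP/EC sprayed on foliage (600–800 l/ha, 0.2% wetting agent). Readout: visual % action, ~3 weeks.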

ALOMY [15] = assay: Post-emergence herbicidal action against ALOMY; format: in vivo, Alopecurus myosuroides; conditions: Alopecurus myosuroides, 504 h, dosage 20 g/ha, visual assessment about 3 weeks after treatment vs untreated controls
How it was run: as §2

AMARE [16] = assay: Post-emergence herbicidal action against AMARE; format: in vivo, Amaranthus retroflexus; conditions: Amaranthus retroflexus, 504 h, 20 g/ha, visual assessment about 3 weeks after treatment, 100% = plants have died, 0% = like control plants
How it was run: as §2

AVEFA [17] = assay: Post-emergence herbicidal action against AVEFA; format: in vivo, Avena fatua; conditions: Avena fatua, 504 h, 20 g/ha, visual assessment about 3 weeks after treatment, 100% = plants have died, 0% = like control plants
How it was run: as §2

ECHCG [18] = assay: Post-emergence herbicidal action against ECHCG; format: in vivo, Echinochloa crus-galli; conditions: Echinochloa crus-galli, 504 h
How it was run: as §2

HORMU = assay: Post-emergence herbicidal action against HORMU; format: in vivo, Hordeum murinum; conditions: Hordeum murinum, 504 h, dosage 20 g/ha
How it was run: as §2

LOLRI [19] = assay: Post-emergence herbicidal action against LOLRI; format: in vivo, Lolium rigidum; conditions: Lolium rigidum, 504 h, dosage 20 g/ha
Description: Seeds of monocotyledonous and dicotyledonous weed and crop plants are laid out in sandy loam soil in wood-fiber pots, covered with soil and cultivated in a greenhouse under good growth conditions. 2 to 3 weeks after sowing, the test plants are treated at the one-leaf stage. The compounds of the invention, formulated in the form of wettable powders (WP) or as emulsion concentrates (EC), are then sprayed onto the green parts of the plants in the form of an aqueous suspension or emulsion at a water application rate equivalent to 600 to 800 l/ha, with addition of 0.2% wetting agent. After the test plants have been left to stand in the greenhouse under optimal growth conditions for about 3 weeks, the action of the preparations is assessed visually in comparison to untreated controls (herbicidal action in percent (%): 100% activity=the plants have died, 0% activity=like control plants). […] The tables below illustrate, in an illustrative manner, the post-emergence herbicidal action of the compounds of the invention, the herbicidal activity being stated in percent.

MATIN [20] = assay: Post-emergence herbicidal action against MATIN; format: in vivo, Matricaria inodora; conditions: Tripleurospermum inodorum, 504 h, dosage 20 g/ha
How it was run: as §2

PHBPU [21] = assay: Post-emergence herbicidal action against PHBPU; format: in vivo, Pharbitis purpurea; conditions: Ipomoea purpurea, 504 h
How it was run: as §2

SETVI [22] = assay: Post-emergence herbicidal action against SETVI; format: in vivo, Setaria viridis; conditions: Setaria viridis, 504 h
How it was run: as §2

STEME [23] = assay: Post-emergence herbicidal action against STEME; format: in vivo, Stellaria media; conditions: Stellaria media, 504 h
How it was run: as §2

VERPE [24] = assay: Post-emergence herbicidal action against VERPE; format: in vivo, Veronica persica; conditions: Veronica persica, 504 h, 20 g/ha
How it was run: as §2

VIOTR [25] = assay: Post-emergence herbicidal action against VIOTR; format: in vivo, Viola tricolor; conditions: Viola tricolor, 504 h, 20 g/ha
How it was run: as §2

DIGSA [26] = assay: Post-emergence herbicidal action against DIGSA; format: in vivo, Digitaria sanguinalis; conditions: Digitaria sanguinalis, 504 h
How it was run: as §2

## CCNC(=O)c1c(C(F)(F)F)ccc(C(=O)Nc2nnnn2C)c1SC [Example 1-82]
ABUTH [1]; 80 g/ha, scored visually after 3 weeks vs untreated controls (100% = plants have died, 0% = like control plants)
  pest or weed control at 80 g/ha: 100%
ABUTH [1]; dosage 20 g/ha, scored visually after 3 weeks vs untreated controls, 100% = plants have died, 0% = like control plants, read-out: Pre-emergence action against ABUTH (herbicidal activity in percent)
  pest or weed control at 20 g/ha: 100%
ALOMY [2]
  pest or weed control at 80 g/ha: 80%
AMARE [3]; 20 g/ha
  pest or weed control at 20 g/ha: 90%
AMARE [3]; 80 g/ha
  pest or weed control at 80 g/ha: 100%
AVEFA [4]
  pest or weed control at 80 g/ha: 90%
ECHCG [5]
  pest or weed control at 80 g/ha: 100%
LOLRI [6]
  pest or weed control at 80 g/ha: 80%
MATIN [7]; dosage 20 g/ha
  pest or weed control at 20 g/ha: 100%
MATIN [7]; dosage 80 g/ha
  pest or weed control at 80 g/ha: 100%
PHBPU [8]
  pest or weed control at 80 g/ha: 80%
POLCO
  pest or weed control at 80 g/ha: 90%
SETVI [9]; dosage 20 g/ha
  pest or weed control at 20 g/ha: 80%
SETVI [9]; dosage 80 g/ha
  pest or weed control at 80 g/ha: 100%
STEME [10]; dosage 20 g/ha
  pest or weed control at 20 g/ha: 100%
STEME [10]; dosage 80 g/ha
  pest or weed control at 80 g/ha: 100%
VERPE [11]
  pest or weed control at 80 g/ha: 90%
VIOTR [12]; dosage 20 g/ha
  pest or weed control at 20 g/ha: 100%
VIOTR [12]; dosage 80 g/ha
  pest or weed control at 80 g/ha: 100%
DIGSA [13]; dosage 20 g/ha
  pest or weed control at 20 g/ha: 100%
DIGSA [13]; dosage 80 g/ha
  pest or weed control at 80 g/ha: 100%
ABUTH [14]; dosage 5 g/ha
  pest or weed control at 5 g/ha: 90%
ABUTH [14]; dosage 20 g/ha
  pest or weed control at 20 g/ha: 90%
ALOMY [15]
  pest or weed control at 20 g/ha: 90%
AMARE [16]
  pest or weed control at 20 g/ha: 90%
AVEFA [17]
  pest or weed control at 20 g/ha: 90%
ECHCG [18]; dosage 5 g/ha
  pest or weed control at 5 g/ha: 80%
ECHCG [18]; dosage 20 g/ha
  pest or weed control at 20 g/ha: 90%
HORMU
  pest or weed control at 20 g/ha: 90%
LOLRI [19]
  pest or weed control at 20 g/ha: 80%
MATIN [20]
  pest or weed control at 20 g/ha: 80%
PHBPU [21]; dosage 5 g/ha
  pest or weed control at 5 g/ha: 80%
PHBPU [21]; dosage 20 g/ha
  pest or weed control at 20 g/ha: 90%
SETVI [22]; dosage 5 g/ha
  pest or weed control at 5 g/ha: 80%
SETVI [22]; dosage 20 g/ha
  pest or weed control at 20 g/ha: 90%
STEME [23]; 20 g/ha
  pest or weed control at 20 g/ha: 90%
STEME [23]; dosage 5 g/ha
  pest or weed control at 5 g/ha: 90%
VERPE [24]
  pest or weed control at 20 g/ha: 80%
VIOTR [25]
  pest or weed control at 20 g/ha: 90%
DIGSA [26]; 5 g/ha
  pest or weed control at 5 g/ha: 90%
DIGSA [26]; 20 g/ha
  pest or weed control at 20 g/ha: 90%
